In ChEMBL document CHEMBL5352385, “Marine natural products and their synthetic analogs as promising antibiofilm agents for antibiotics discovery and development” (Eur J Med Chem, 2022) one finds Activity, IC50 and MBIC data, which are given here for 27 compounds.

SMILES strings stand for the structures. Where only a bound is given, the exact number is not on record here.

Test [1] relates to Staphylococcus aureus. Nature of the test: Antibiofilm activity against methicillin-resistant Staphylococcus aureus CH 10850 at 100 ug/ml relative to control. It counts as functional. As to conditions: dose 100 µg/ml.
Test [2] deals with Streptococcus mutans. Nature of the test: Antibiofilm activity against clinical isolate Streptococcus mutans 2.M7/4 assessed as inhibition of biofilm formation at 31.0 ug/ml relative to control. It counts as functional. As to conditions: dose 31 µg/ml. Also noted: scale not given: the % may be the effect or the level left.
Test [3] relates to Streptococcus mutans. Nature of the test: Antibiofilm activity against Streptococcus mutans UA159 assessed as inhibition of biofilm formation at 31.0 ug/ml relative to control. Also noted: scale not given: the % may be the effect or the level left. It counts as functional. As to conditions: dose 31 µg/ml.
Test [4] can be described thus: Inhibition of quorum sensing system in Pseudomonas aeruginosa PA01 transfected with lasB-gfp.
The nature of test [5]: Inhibition of quorum sensing system in Pseudomonas aeruginosa PA01 transfected with […].
The subject of test [6] is Candida albicans. Nature of the test: Antibiofilm activity against Candida albicans assessed as reduction in biofilm formation at 200 ug/ml measured after 48 hrs by crystal violet staining based analysis relative to control. As to conditions: dose 200 µg/ml. It counts as functional. Also noted: scale not given: the % may be the effect or the level left.
Test [7] concerns Staphylococcus aureus. Nature of the test: Antibiofilm activity against Staphylococcus aureus ATCC 6538 at 6.25 ug/ml relative to control. It counts as functional. The conditions noted are these: dose 6.25 µg/ml.
Test [8] relates to Staphylococcus epidermidis. Nature of the test: Antibiofilm activity against Staphylococcus epidermidis RP62A. It counts as functional.
The subject of test [9] is Staphylococcus aureus. Nature of the test: Antibiofilm activity against methicillin-resistant Staphylococcus aureus CH 10850 at 50 ug/ml relative to control. It counts as functional. The conditions noted are these: dose 50 µg/ml.
Test [10] relates to Staphylococcus aureus. The experiment in a line: Antibiofilm activity against Staphylococcus aureus ATCC 25923 after 24 hrs by crystal violet staining based assay. It counts as functional, organism-based. As to conditions: ATCC 25923, 24 h.
Test [11] has as its system Staphylococcus aureus. Nature of the test: Antibiofilm activity against Staphylococcus aureus ATCC 6538 after 24 hrs by crystal violet staining based assay. It counts as functional, organism-based. As to conditions: ATCC 6538, 24 h.
Test [12] deals with Streptococcus mutans. Nature of the test: Antibiofilm activity against Streptococcus mutans UA159 assessed as inhibition of biofilm formation. It counts as functional, organism-based.
Test [13] deals with Pseudomonas aeruginosa. Nature of the test: Antibiofilm activity against Pseudomonas aeruginosa assessed as inhibition of biofilm formation at 100 ug/ml incubated for 24 hrs by crystal violet staining based analysis relative to control. As to conditions: dose 100 µg/ml. Also noted: scale not given: the % may be the effect or the level left. It counts as functional.
The subject of test [14] is Micrococcus luteus. The experiment in a line: Antibiofilm activity against Micrococcus luteus at 31.25 ug/ml incubated for 48 hrs by crystal violet staining based analysis relative to control. It counts as functional. The conditions noted are these: dose 31.25 µg/ml.
Test [15] deals with Pseudooceanicola batsensis. Nature of the test: Antibiofilm activity against Pseudooceanicola-batsensis at 31.25 ug/ml incubated for 48 hrs by crystal violet staining based analysis relative to control. It counts as functional. The conditions noted are these: dose 31.25 µg/ml.
Test [16] deals with Marinobacter nauticus. Nature of the test: Antibiofilm activity against Marinobacter hydrocarbonoclasticus at 31.25 ug/ml incubated for 24 hrs by crystal violet staining based analysis relative to control. It counts as functional. The conditions noted are these: dose 31.25 µg/ml.
Test [17] relates to Pseudomonas aeruginosa. The experiment in a line: Antibiofilm activity against Pseudomonas aeruginosa ATCC 15442 after 24 hrs by crystal violet staining based assay. It counts as functional, organism-based. The conditions noted are these: ATCC 15442, 24 h.
Test [18] deals with Staphylococcus aureus. Nature of the test: Antibiofilm activity against methicillin-resistant Staphylococcus aureus ATCC 6538 at 100 ug/ml incubated for 24 hrs by crystal violet staining based microplate reader method relative to control. It counts as functional. The conditions noted are these: dose 100 µg/ml.
Test [19] concerns Staphylococcus epidermidis. Nature of the test: Antibiofilm activity against […] incubated for 24 hrs. It counts as functional.
For test [20], the system named is Staphylococcus aureus. The experiment in a line: Antibiofilm activity against methicillin-resistant Staphylococcus aureus CH 10850 at 32 ug/ml relative to control. It counts as functional. As to conditions: dose 32 µg/ml.

Consider `C[C@H]1C(=O)O[C@@H]2OC[C@@H]3CCC([C@@]4(C)CCCC(C)(C)C4)=C1[C@@H]32`, for which the Activity in test [1] worked out at 85.4%.
As to `CCCCCCCCC[C@H](CC(=O)NCCCN)N1CC(=O)N[C@@H](Cc2ccccc2)C1=O`, the Activity in [2] amounted to 34.8%; in test [3], 90%.
The IC50 is the concentration needed to halve the response being measured. On to `O=C(NCCSSCCNC(=O)/C(Cc1ccc(O)c(Br)c1)=N/O)/C(Cc1ccc(O)c(Br)c1)=N/O` [PSAMMAPLIN A], for which the figures for the IC50 in [4] and in test [5] were 30.7 µM and 2.64 µM, respectively.
As to `CCCCCCC(C)/C(O)=C1\C(=O)[C@H](C(C)O)N(C)C1=O` (some centres not stated), the Activity in test [6] came to 80%.
Regarding `COC(=O)[C@@]12Oc3ccc(-c4ccc5c(c4O)C(=O)C4=C(O)C[C@H](C)[C@H](O)[C@]4(C(=O)OC)O5)c(O)c3C(=O)C1=C(O)C[C@H](C)[C@@H]2O` [SECALONIC ACID B], in test [7], the Activity is more than 90%.
For the compound `CCCCC/C=C/C(=O)CCCCCCCCCC(=O)O`, in [8], the MBIC was found to be 16 µg/mL.
Take `CCC1=C(C=O)[C@H](C(=O)OC)CC[C@@H]1[C@@]1(C)CCCC(C)(C)C1`: the Activity in test [1] was found to be 90.7%.
As to `CC(=O)O[C@@H]1O[C@H](OC(C)=O)[C@H]2C(=O)[C@@H]([C@@]3(C)CCCC(C)(C)C3)CC[C@@H]12`, the Activity in [9] came out at 97.7%.
Turning to `COCCn1cc(-c2csc(-c3cn(C(=O)OC(C)(C)C)c4ccccc34)n2)c2cccnc21`, the values for the 50% inhibitory concentration (IC50) in test [10] and in [11] were 3.7 µM and 14.5 µM, respectively.
As to `COc1ccc(CCNC2=CC3=NCCc4cn(S(=O)(=O)c5ccc(C)cc5)c(c43)C2=O)cc1`, in test [12], the IC50 came to 2 µM.
With `O=C(OCc1ccccc1)c1ccccc1` [BENZYL BENZOATE], the Activity in [13] worked out at 37.7%.
In test [9], `COC(=O)[C@H](C)c1c([C@@]2(C)CCCC(C)(C)C2)ccc2c1[C@H](O)OC2=O` displayed an Activity of 97.8%.
For the compound `C/C=C/CCCC(C)/C(O)=C1\C(=O)[C@@H](C(C)O)N(C)C1=O` (some centres not stated), the Activity in test [6] came to 80%.
`COC(=O)[C@H](C)c1c([C@@]2(C)CCCC(C)(C)C2)ccc2c1C(=O)OC2`: the Activity in test [9] is reported as 99.9%.
As to `CC(C)=CCC/C(C)=C\C[C@@]12OC(C)(C)[C@H](Cl)C[C@]1(Cl)C(=O)c1c(O)cc(O)cc1C2=O`, the Activity in test [14] came to 88.6%; in test [15], 87.2%.
For the compound `CCC(C)C(=O)NCCc1ccccc1` (configuration not stated), in test [13], the Activity is on record as 50.6%.
Take `C=C1CCC(Br)C(C)(C)C1C[C@@]12OC(C)(C)[C@H](Cl)C[C@]1(Cl)C(=O)c1c(O)cc(O)cc1C2=O` (some centres not stated): the values for the Activity in [14], in test [15] and in test [16] were 100%, 26.2% and 59.3%, respectively.
As for `COCCn1cc(-c2nc(-c3c[nH]c4ncccc34)cs2)c2cc(Br)ccc21`, the IC50 in test [10] worked out at 1.7 µM; in test [11] it was 20.7 µM; in [17], 9.7 µM.
`CC(=O)OCC1=C[C@]2(C=C(C)C[C@@H](/C=C(\C)CCC=C(C)C)O2)O[C@@H]2C=C(C)C(=O)C[C@H]12` had an Activity in test [18] of 50%.
On to `C=C1CCC(Br)C(C)(C)C1C[C@@]12OC(C)(C)[C@H](Cl)C=C1C(=O)c1c(O)cc(O)cc1C2=O` (some centres not stated), for which the results for the Activity in [14], in test [15] and in test [16] were 100%, 26.2% and 59.3%, respectively.
In [19], `Cn1c(-c2nnc(-c3ccc(N)cc3)o2)cc(Br)c1Br` yielded an MBIC of 3.125 µg/mL.
`CC(=O)O[C@H]1C[C@@H]2C(CO)=C[C@]3(C=C(C)C[C@@H](/C=C(\C)CCC=C(C)C)O3)O[C@@H]2C=C1C`: the Activity in test [18] worked out at 50%.
On to `CCCCCC1OC1C(O)CCCCCCCCCC(=O)O` (configuration not stated), for which the MBIC in [8] came out at 32 µg/mL.
In the case of `NCC(c1c[nH]c2cc(Br)ccc12)c1c[nH]c2cc(Br)ccc12`, the Activity in test [20] came to 56.3%.
Still for that read-out and setting: with `NCC(c1c[nH]c2cc(F)ccc12)c1c[nH]c2cc(F)ccc12` the figure was 61%.
On to `Cc1c(O)cc2c(c1O)C(=O)[C@@]1(Cl)C[C@@H](Cl)C(C)(C)O[C@@]1(CC1C(C)(C)C(Cl)CC[C@@]1(C)O)C2=O` (some centres not stated), for which the Activity in [16] was 25.1%.
In [16], `C=C1CCC(Cl)C(C)(C)C1C[C@@]12OC(C)(C)[C@H](Cl)C=C1C(=O)c1c(cc(O)c(C)c1O)C2=O` (some centres not stated) displayed an Activity of 33.7%.
